Experimental data: ChEMBL document CHEMBL4184264, “Heterobicyclic inhibitors of transforming growth factor beta receptor I (TGFβRI)” (Bioorg Med Chem, 2018)

Tests used:
[1] = Metabolic stability in human liver microsomes assessed as compound remaining by LC-MS/MS analysis; type: ADME, microsome
[2] = Metabolic stability in mouse liver microsomes assessed as compound remaining by LC-MS/MS analysis; type: ADME, microsome
[3] = Inhibition of TGFbetaR1 in mink Mv1Lu cells assessed as TGFbeta-stimulated PSMAD2 phosphorylation preincubated for 1 hr followed by TGFbeta addition measured after 15 mins; type: cell-based, Neovison vison; details: Neogale vison
[4] = Metabolic stability in rat liver microsomes assessed as compound remaining by LC-MS/MS analysis; type: ADME, microsome
TGF-beta receptor type-2 = TGF-beta receptor type-2 (Homo sapiens, UniProt P37173); test: Inhibition of wild type His-tagged TGFbetaR2 (unknown origin) after 1 hr by HTRF assay
Sequence of TGF-beta receptor type-2 (P37173 whole entry): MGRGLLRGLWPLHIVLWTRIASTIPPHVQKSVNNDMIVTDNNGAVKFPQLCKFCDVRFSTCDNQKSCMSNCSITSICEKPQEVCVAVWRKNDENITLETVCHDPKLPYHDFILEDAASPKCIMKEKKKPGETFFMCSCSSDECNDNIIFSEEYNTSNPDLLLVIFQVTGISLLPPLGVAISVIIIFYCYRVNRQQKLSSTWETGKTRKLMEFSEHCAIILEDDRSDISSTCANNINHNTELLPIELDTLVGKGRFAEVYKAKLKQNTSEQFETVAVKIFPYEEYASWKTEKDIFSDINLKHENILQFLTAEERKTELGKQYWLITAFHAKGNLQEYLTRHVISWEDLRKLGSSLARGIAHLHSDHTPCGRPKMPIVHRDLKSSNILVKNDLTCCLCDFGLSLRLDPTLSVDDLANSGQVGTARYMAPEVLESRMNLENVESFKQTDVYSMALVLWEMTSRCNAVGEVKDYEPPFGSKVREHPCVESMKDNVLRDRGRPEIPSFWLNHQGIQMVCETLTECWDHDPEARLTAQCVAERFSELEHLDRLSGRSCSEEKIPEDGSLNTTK

Mus musculus = test: In vivo inhibition of TGFbetaR1 in po dosed BALB/c mouse implanted with mouse 4T1 cells assessed as reduction in phosphorylated PSMAD levels after 7 hrs; type: functional, organism-based
[5] = Solubility of the compound in DMSO; type: physicochemical

Stability [1] | Stability [2] | IC50 [3] | Stability [4] | IC50 (TGF-beta receptor type-2) | solubility [5] | SMILES | Activity (Mus musculus)
65% | 26% | > 10 µM | 67% |  |  | Cc1cccc(-c2nc(Nc3ccncc3C(=O)NC(C)C)c3cccn3n2)n1 | 
85% | 59% | 0.13 µM | 77% |  |  | CC(=O)Nc1cc(Nc2nc(-c3cccc(C(F)(F)F)n3)nc3[nH]cnc23)ccn1 | 
58% | 36% | 0.75 µM | 46% | 0.19 µM |  | c1ccc(-c2nn3c(c2-c2ccnc4cc(OCCN5CCOCC5)ccc24)CCC3)nc1 | 
36% | 28% | 0.047 µM |  |  |  | Fc1cnccc1Nc1nc(-c2cccc(C(F)(F)F)n2)nc2[nH]ccc12 | 
78% | 66% |  | 68% |  |  | CC(=O)Nc1cc(Nc2nc(-c3cccc(C(F)(F)F)n3)nn3cccc23)c(F)cn1 | 
25% | 2% | 0.024 µM | 38% |  |  | Cc1cccc(-c2nc(Nc3ccncc3F)c3cc[nH]c3n2)n1 | 
85% | 82% | 0.39 µM | 90% |  |  | N[C@H]1CCN(Cc2ccn3nc(-c4ccccn4)nc(Nc4ccncc4F)c23)C[C@@H]1O | 
93% | 100% | 0.31 µM | 92% |  |  | N[C@@H]1CCN(Cc2ccn3nc(-c4ccccn4)nc(Nc4ccncc4F)c23)C[C@H]1O | 
24% | 13% | 0.71 µM | 48% |  |  | FC(F)(F)c1cccc(-c2nc(Nc3ccncc3)c3cccn3n2)n1 | 
11% | 6% | 0.18 µM | 35% |  |  | Cc1cccc(-c2nc(Nc3ccncc3F)c3cccn3n2)n1 | 
75% | 49% | 0.18 µM | 35% |  |  | CC(=O)Nc1cc(Nc2nc(-c3cccc(C(F)(F)F)n3)nn3cccc23)ccn1 | Dose-dependent effect
86% | 48% | 0.076 µM | 72% |  |  | N[C@H]1CC[C@@H](NCc2ccn3nc(-c4ccccn4)nc(Nc4ccncc4F)c23)CC1 | 
15% | 7% | 1.2 µM | 39% |  |  | Cc1cccc(-c2nc(Nc3c(F)cncc3F)c3cccn3n2)n1 | 
70% | 77% | 0.22 µM |  |  |  | O=C(CN1CCN(CCO)CC1)Nc1cc(Nc2nc(-c3cccc(C(F)(F)F)n3)nn3cccc23)ccn1 | 
11% | 1% | 0.099 µM | 28% |  | Soluble | Cc1cccc(-c2nc(Nc3ccncc3)c3cccn3n2)n1 | 
38% | 4% | 0.15 µM | 47% |  |  | Cc1cccc(-c2nc(Nc3ccncc3F)c3nc[nH]c3n2)n1 | 
81% | 27% | 0.043 µM | 80% |  |  | CC(=O)Nc1cc(Nc2nc(-c3cccc(C(F)(F)F)n3)nc3[nH]ccc23)ccn1 | 
33% | 1% | 0.35 µM | 33% |  |  | c1ccc(-c2nc(Nc3ccncc3)c3cccn3n2)nc1 | 
54% | 19% | 0.5 µM | 54% |  |  | Fc1cnccc1Nc1nc(-c2ccccn2)nn2cccc12 | 
 |  |  |  |  | Insoluble | Cc1cccc(-c2nc(Nc3ccnc4ccccc34)c3cccn3n2)n1 | 
 |  |  |  | 1.3 µM |  | Cc1cccc(-c2nn3c(c2-c2ccnc4ccc(C(N)=O)cc24)CCC3)n1 [GALUNISERTIB] | 
12% | 2% | 3.9 µM | 36% |  |  | COc1cccc(-c2nc(Nc3ccncc3)c3cccn3n2)n1 | 
